Laboratory results from patent US11390631B1, “Benzodiazepine derivatives as RSV inhibitors” (priority 2015, dated 2022).
Where two headings read alike, the source gives them in different places.

Tested on: Human RSV-A (“Long” strain)
Assay: RSV-A assay: inhibition of cytopathic effect in Hep-2 cells, ATPlite readout
Type: cell-based, Human respiratory syncytial virus (HRSV)
Settings: read-out: Human RSV-A (“Long” strain) EC50
Summary of the method: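 Cytopathic-effect protection was read as ATP content (ATPlite luminescence) after a 5-day incubation. Setup: Hep-2 cells at 8,000 per well, RSV-A Long at MOI 0.1, 2-fold serial compound dilutions in duplicate. Cytotoxicity (CC50) was measured on an identical uninfected plate run in parallel.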

[1] = human respiratory syncytial virus, HEp-2, 120 h
[2] = Hep-2 cells, MOI 0.1, 5-day incubation, ATPlite

Row | Compound | EC50 [1] | EC50 [2]
1 | O=C1Nc2ccccc2C(c2ccccc2)=N[C@@H]1Nc1nnc(-c2nc(C(F)(F)F)sc2NCC2COC2)o1 [Example 475] | 400 to 800 nM | –
2 | CN1CCN(c2ncccc2-c2nnc(NC3N=C(c4ccccc4)c4ccccc4NC3=O)o2)CC1 (stereo not drawn) [Example 237] | > 800 nM | –
3 | O=C1Nc2ccccc2C(c2ccccc2)=N[C@@H]1Nc1nnc(-c2ncc(C(F)(F)F)cc2N2CCOc3ccccc32)o1 [Example 468] | > 800 nM | –
4 | O=C1Nc2ccccc2C(c2ccccc2)=NC1Nc1nnc(-c2cccnc2N2C[C@@H]3C[C@H]2CO3)o1 (stereo partly drawn) [Example 248] | > 800 nM | –
5 | Cc1ccc(-c2nnc(N[C@H]3N=C(c4ccccc4)c4ccccc4NC3=O)o2)c(N2CCOC[C@H]2C)n1 [Example 286] | < 400 nM | –
6 | N#Cc1ccc(-c2cnc(NC3N=C(c4ccccc4)c4ccccc4NC3=O)o2)cc1 (stereo not drawn) [Example 368] | 400 to 800 nM | –
7 | COCc1ccn2ncc(-c3nnc(N[C@H]4N=C(c5ccccc5)c5ccccc5NC4=O)o3)c2c1 [Example 449] | > 800 nM | –
8 | O=C1Nc2ccccc2C(c2ccccc2)=N[C@@H]1Nc1nnc(-c2ncc(C(F)(F)F)cc2N2CCC(O)CC2)o1 [Example 328] | > 800 nM | –
9 | Cc1ccc(-c2nnc(N[C@H]3N=C(c4ccccc4)c4ccccc4NC3=O)o2)c(N2CC3CCC(C2)O3)n1 [Example 279] | < 400 nM | –
10 | Cc1nc(-c2nnc(N[C@H]3N=C(c4ccccc4)c4ccccc4NC3=O)o2)c(C2CCOCC2)s1 [Example 346, (S)-3-((5-(2-methyl-5-(tetrahydro-2H-pyran-4-yl)thiazol-4-yl)-1,3,4-oxadiazol-2-yl)amino)-5-phenyl-1,3-dihydro-2H-benzo[e][1,4]diazepin-2-one] | < 400 nM | –
11 | O=C1Nc2ccccc2C(c2ccccc2)=N[C@@H]1Nc1nnc(-c2ccnn2-c2ccccc2)o1 [Example 349] | > 800 nM | –
12 | O=C1Nc2ccccc2C(c2ccccc2)=N[C@H]1Nc1nnc(-c2cn(CC3CC3)nc2N2CCOCC2)o1 [Example 447] | – | 400 to 800 nM
13 | O=C1Nc2ccccc2C(c2ccccc2)=NC1Nc1nnc(C2CCOC2)o1 (stereo not drawn) [Example 215] | > 800 nM | –
14 | COC[C@@H]1C[C@H]1c1cc(C(F)(F)F)cnc1-c1nnc(N[C@@H]2N=C(c3ccccc3)c3ccccc3NC2=O)o1 [Example 481] | – | > 800 nM
15 | CCCc1nnc(NC2N=C(c3ccccc3)c3ccccc3NC2=O)o1 (stereo not drawn) [Example 190] | > 800 nM | –
16 | COC1C2CN(c3cc(C(F)(F)F)cnc3-c3nnc(N[C@H]4N=C(c5ccccc5)c5ccccc5NC4=O)o3)CC21 (stereo partly drawn) [Example 439] | > 800 nM | –
17 | C[C@@H]1CN(c2cc(F)ccc2-c2nnc(N[C@H]3N=C(c4ccccc4)c4ccccc4NC3=O)o2)C[C@H](C)O1 [Example 284] | > 800 nM | –
18 | COc1ccc(-c2ccc(NC3N=C(c4ccccc4)c4ccccc4NC3=O)nn2)cc1 (stereo not drawn) [Example 376] | > 800 nM | –
19 | O=C1Nc2ccccc2C(c2ccccc2)=NC1Nc1nnc(-c2nccnc2N2CCOCC2)o1 (stereo not drawn) [Example 143] | < 400 nM | –
20 | O=C1Nc2ccccc2C(c2ccccc2)=NC1Nc1nnc(-c2cccc(-n3ccnc3)c2)o1 (stereo not drawn) [Example 212] | > 800 nM | –
21 | O=C1Nc2ccccc2C(c2ccccc2)=N[C@H]1Nc1nnc(-c2cn(CC(F)(F)F)nc2N2CCOCC2)o1 [Example 489] | – | > 800 nM
22 | COc1ccccc1-c1nc(-c2nnc(N[C@H]3N=C(c4ccccc4)c4ccccc4NC3=O)o2)c(N2CCOCC2)s1 [Example 342] | < 400 nM | –
23 | CC(C)(O)c1nnc(NC2N=C(c3ccccc3)c3ccccc3NC2=O)o1 (stereo not drawn) [Example 213] | > 800 nM | –

Row | Compound | EC50 [1] | EC50 [2]
24 | N#Cc1cnc(-c2nnc(NC3N=C(c4ccccc4)c4ccccc4NC3=O)o2)c(N2CCOCC2)c1 (stereo not drawn) [Example 140] | < 400 nM | –
25 | N#Cc1cnc(-c2nnc(N[C@H]3N=C(c4ccccc4)c4ccccc4NC3=O)o2)c(N2CCOCC2)c1 [Example 325] | < 400 nM | –
26 | CS(=O)(=O)c1ccc(-c2nnc(NC3N=C(c4ccccc4)c4ccccc4NC3=O)o2)c(N2CCOCC2)c1 (stereo not drawn) [Example 121] | > 800 nM | –
27 | CC(C)c1nnc(NC2N=C(c3ccccc3)c3ccccc3NC2=O)o1 (stereo not drawn) [Example 188] | > 800 nM | –
28 | O=C1Nc2ccccc2C(c2ccccc2)=NC1Nc1nnc(-c2ccc(N3CCOCC3)cc2C(F)(F)F)o1 (stereo not drawn) [Example 147] | > 800 nM | –
29 | O=C1Nc2ccccc2C(c2ccccc2)=N[C@@H]1Nc1nnc(-c2ncc(C3CCCCC3)cc2N2CCOCC2)o1 [Example 313] | < 400 nM | –
30 | C[C@@H]1CN(c2ncccc2-c2nnc(NC3N=C(c4ccccc4)c4ccccc4NC3=O)o2)CCO1 (stereo partly drawn) [Example 262] | > 800 nM | –
31 | Cc1noc(C)c1-c1cc(C#N)ccc1-c1nnc(N[C@H]2N=C(c3ccccc3)c3ccccc3NC2=O)o1 [Example 320] | > 800 nM | –
32 | N#Cc1c[nH]c2cc(-c3nnc(N[C@H]4N=C(c5ccccc5)c5ccccc5NC4=O)o3)ccc12 [Example 291] | > 800 nM | –
33 | O=C1Nc2ccccc2C(c2ccccc2)=N[C@@H]1Nc1nnc(-c2cnc(C3CC3)nc2N2CCOCC2)o1 [Example 167] | < 400 nM | –
34 | O=C1Nc2ccccc2C(c2ccccc2)=NC1Nc1nnc(-c2cccc(F)c2N2CCOCC2)o1 (stereo not drawn) [Example 148] | > 800 nM | –
35 | O=C1Nc2ccccc2C(c2ccccc2)=N[C@@H]1Nc1nnc(-c2nc(C3(O)CCC3)sc2N2CCOCC2)o1 [Example 455] | < 400 nM | –
36 | Cc1nc2ccc(-c3nnc(NC4N=C(c5ccccc5)c5ccccc5NC4=O)o3)cc2s1 (stereo not drawn) [Example 187] | 400 to 800 nM | –
37 | O=C1Nc2ccccc2C(c2ccccc2)=N[C@@H]1Nc1nnc(-c2cc(C(F)(F)F)sc2N2CCOCC2)o1 [Example 383] | < 400 nM | –
38 | COCCNc1sc(C(F)(F)F)nc1-c1nnc(N[C@H]2N=C(c3ccccc3)c3ccccc3NC2=O)o1 [Example 473] | < 400 nM | –
39 | CN1CCN(c2ccc(-c3nnc(NC4N=C(c5ccccc5)c5ccccc5NC4=O)o3)cc2)CC1 (stereo not drawn) [Example 210] | > 800 nM | –
40 | O=C1Nc2ccccc2C(c2ccccc2)=N[C@@H]1Nc1nnc(-c2cn(CC3CC3)nc2N2CCOCC2)o1 [Example 446] | – | < 400 nM
41 | O=C1Nc2ccccc2C(c2ccccc2)=N[C@@H]1Nc1nnc(-c2sc3ncccc3c2N2CCOCC2)o1 [Example 180] | < 400 nM | –
42 | O=C1Nc2ccccc2C(c2ccccc2)=N[C@@H]1Nc1nnc(-c2cccnc2N2CCn3ncnc3C2)o1 [Example 270] | > 800 nM | –
43 | O=C1Nc2ccccc2C(c2ccccc2)=N[C@@H]1Nc1nnc(-c2ncc(C3CC3)cc2N2CC3CCC(C2)O3)o1 [Example 321] | < 400 nM | –
44 | COCCN(C)c1ccc(-c2nnc(NC3N=C(c4ccccc4)c4ccccc4NC3=O)o2)cc1 (stereo not drawn) [Example 118] | > 800 nM | –
45 | O=C1Nc2ccccc2C(c2ccccc2)=N[C@@H]1Nc1nnc(-c2cn(C3CCC3)nc2N2CCOCC2)o1 [Example 430] | < 400 nM | –
46 | CO[C@H]1CCN(c2ncccc2-c2nnc(NC3N=C(c4ccccc4)c4ccccc4NC3=O)o2)C1 (stereo partly drawn) [Example 247] | > 800 nM | –

Row | Compound | EC50 [1] | EC50 [2]
47 | CC1(c2nnc(NC3N=C(c4ccccc4)c4ccccc4NC3=O)o2)CCNC1 (stereo not drawn) [Example 223] | > 800 nM | –
48 | O=C1Nc2ccccc2C(c2ccccc2)=N[C@@H]1Nc1nnc(-c2oc3cc(F)ccc3c2N2CCOCC2)o1 [Example 476] | 400 to 800 nM | –
49 | COc1ccn2ncc(-c3nnc(N[C@H]4N=C(c5ccccc5)c5ccccc5NC4=O)o3)c2c1 [Example 410] | > 800 nM | –
50 | O=C1Nc2ccccc2C(c2ccccc2)=N[C@@H]1Nc1nnc(-c2cnc(N3CCOCC3)nc2)o1 [Example 165] | 400 to 800 nM | –
51 | CC(C)(O)CNc1cc(C(F)(F)F)cnc1-c1nnc(N[C@H]2N=C(c3ccccc3)c3ccccc3NC2=O)o1 [Example 297] | < 400 nM | –
52 | COCCCc1cc(C(F)(F)F)cnc1-c1nnc(N[C@H]2N=C(c3ccccc3)c3ccccc3NC2=O)o1 [Example 413] | – | > 800 nM
53 | O=C1Nc2ccccc2C(c2ccccc2)=NC1Nc1nnc(-c2cc(F)ccc2N2CCOCC2)o1 (stereo not drawn) [Example 119] | 400 to 800 nM | –
54 | COC1CN(c2ncccc2-c2nnc(NC3N=C(c4ccccc4)c4ccccc4NC3=O)o2)C1 (stereo not drawn) [Example 258] | > 800 nM | –
55 | O=C1Nc2ccccc2C(c2ccccc2)=N[C@@H]1Nc1nnc(-c2sc(Br)cc2N2CCOCC2)o1 [Example 182] | < 400 nM | –
56 | CS(=O)(=O)c1cnc(-c2nnc(N[C@H]3N=C(c4ccccc4)c4ccccc4NC3=O)o2)c(N2CCOCC2)c1 [Example 332] | > 800 nM | –
57 | O=C1Nc2ccccc2C(c2ccccc2)=N[C@@H]1Nc1nnc(-c2ncc(C(F)(F)F)cc2NC2COC2)o1 [Example 469] | < 400 nM | –
58 | O=C1Nc2ccccc2C(c2ccccc2)=N[C@@H]1Nc1nnc(-c2ccc(C(F)(F)F)cc2N2CCOCC2)o1 [Example 152] | < 400 nM | –
59 | CC(C)(C)c1nnc(NC2N=C(c3ccccc3)c3ccccc3NC2=O)o1 (stereo not drawn) [Example 189] | > 800 nM | –
60 | O=C1Nc2ccccc2C(c2ccccc2)=N[C@@H]1Nc1nnc(-c2nc(C3(C(F)(F)F)CCC3)sc2N2CCOCC2)o1 [Example 490] | < 400 nM | –
61 | O=C1Nc2ccccc2C(c2ccccc2)=N[C@@H]1Nc1nnc(-c2nnsc2N2CCOCC2)o1 [Example 292] | < 400 nM | –
62 | O=C1Nc2ccccc2C(c2ccccc2)=N[C@@H]1Nc1nnc(-c2ccc(N3C4CCC3COC4)cc2Cl)o1 [Example 244] | > 800 nM | –
63 | Cc1nc(-c2nnc(N[C@H]3N=C(c4ccccc4)c4ccccc4NC3=O)o2)c(N2CCOCC2)o1 [Example 337] | < 400 nM | –
64 | O=C1Nc2ccccc2C(c2ccccc2)=NC1Nc1nnc(-c2nc(Br)sc2N2CCOCC2)o1 (stereo not drawn) [Example 400] | < 400 nM | –
65 | COCCCc1sc(C(F)(F)F)nc1-c1nnc(N[C@H]2N=C(c3ccccc3)c3ccccc3NC2=O)o1 [Example 396] | > 800 nM | –
66 | CN[C@H](c1ccccc1)c1nnc(NC2N=C(c3ccccc3)c3ccccc3NC2=O)o1 (stereo partly drawn) [Example 238] | > 800 nM | –
67 | O=C1Nc2ccccc2C(c2ccccc2)=NC1Nc1nnc(C2CC3(CCNCC3)C2)o1 (stereo not drawn) [Example 222] | > 800 nM | –
68 | N#Cc1cc(N2CCOCC2)c(-c2nnc(N[C@H]3N=C(c4ccccc4)c4ccccc4NC3=O)o2)s1 [Example 323] | < 400 nM | –
69 | N#Cc1cnc(N2CCOCC2)c(-c2nnc(N[C@H]3N=C(c4ccccc4)c4ccccc4NC3=O)o2)c1 [Example 174] | < 400 nM | –
